Source: patent publication US20220106547A1, “COMPOSITIONS AND METHODS OF USING PARTIAL GEL LAYERS IN A MICROFLUIDIC DEVICE” (Emulate, Inc., priority 2019, published 2022)

Columns and labels:
[1] = test system: primary human hepatocytes; experiment: Lipid droplet accumulation (AdipoRed) in ALD Liver-Chip; conditions: ethanol 0.08% or 0.16%, oleic acid 1 μg/ml, up to 48 hrs
[2] = test system: primary human hepatocytes; experiment: Oxidative stress (MitoSox ROS events) in Liver-Chip hepatocytes; assay type: cell-based; conditions: 48 h exposure
Excerpt: Having shown that at least one embodiment of a Liver-Chip responds to alcohol, we explored the possibility of modeling the progression of ALD, as per the two- or one-hit and second-hit hypothesis, such that simple steatosis induced by alcohol requires a second hit (insult) for progression of ALD to ASH ref^69. Ethanol consumption in humans compromises the intestinal barrier function resulting in increased permeability to intestinal endotoxins, e.g. bacterial lipopolysaccharide (LPS), from the gut to the liver via the portal vein ref^18. Such a permeabalized leaky barrier is considered one of the “second hits” in the progression of ALD to inflammation (ASH) ref^70. Therefore, we tested whether exposure to ethanol and LPS together would worsen the Liver-Chip pathology.
Clinical data have shown the potential of the steatotic liver to repair the steatotic injury following timely abstinence from alcohol or with diet modifications ref^19. Thus, we assessed the responses of the “alcoholic” Liver-Chip to withdrawal from ethanol or ethanol+LPS. Treatment of the Liver-Chip for 48 h with ethanol or ethanol+LPS as above, was followed by a 5 day-long treatment-free “recovery” period. […]
Live cell staining. […] The stained chips were imaged using either an Olympus fluorescence microscope (IX83) or Zeiss confocal microscope (LSM880), and were de-blurred with Olympus cellSens software. […]

[3] = test system: bile canaliculi network of primary human hepatocytes; experiment: Bile canaliculi (BC) network integrity, MRP-2 staining, Liver-Chip; assay type: cell-based; conditions: 0.08% ethanol with or without LPS, 48 h
Excerpt: A Tri-culture configuration includes primary hepatocytes cultured in the upper channel and primary liver sinusoidal endothelial cells (LSECs) cultured on the opposite side of the membrane, i.e. in the lower channel, along with Kupffer cells. As this design recapitulates elements of the hepatic sinusoid microenvironment ref^17, we were interested in recreating the bile canaliculi (BC) network that is established between neighboring hepatocytes. […] The latter together with the lack of a reproducible, quantitative manner to assess the integrity of the BC network have precluded the use of this clinical endpoint in preclinical studies. […] Based on these findings, we assessed the impact of various ECM scaffold compositions and patterning methods on BC integrity by using quantitative metrics to describe the MRP-2 stained BC network topology (FIG. 82A-E: Table 8. […]
To assess the effect of each ECM protocol on BC network formation, we quantified the MRP-2 stained BC network topology (see method sections on IF staining and Image analysis for details). […]
For measuring bile canaliculi network properties, MRP-2 stained chips were imaged at 40× using a confocal point-scanning microscope (Zeiss LSM880, Airyscan). […] In each field of view, a z-stack was recorded and combined using maximal intensity projection in order to fully capture the bile canaliculi network. […]

[4] = test system: primary human hepatocytes; conditions: 48 hrs
Excerpt: To this purpose we used fluorometric assays for biochemical markers of liver function, including albumin, cholesterol, glucose, and glycogen (FIG. 77A-B).
Liver-Chip culture. Liver-Chip culture was established according to our previously published protocol^74. […] Extracellular matrix sandwiching and composition in the Liver-Chip was optimized to support BC integrity (FIG. 81A-B and method sections below). On the other side of the membrane (the lower chamber of the chip) human primary LSECs (3 million cells/mL) and KCs (0.5 million cells/mL) were seeded to mimic the hepatic sinusoid architecture (FIG. 76A). The two cell compartments were perfused independently, and flow rates were optimized to enable optimal survival and maturation of the different cell types ref^74. In the Quad Liver-Chip experiments, primary human hepatic stellate cells (50,000 cells/mL) were mixed within the collagen coating (FibriCol at 0.5 mg/ml concentration) and add to activated chips and let incubate overnight before hepatocytes seeding on the top of the collagen and HSC mix. The seeded hepatocytes were overlaid with ECM as described in FIG. 81A-B and below, and maintained in William's E Medium (WEM) containing Glutamax (Gibco), ITS+ (Corning), dexamethasone (Sigma-Aldrich), ascorbic acid (Sigma-Aldrich), fetal bovine serum (Sigma-Aldrich), and penicillin/streptomycin (Sigma-Aldrich), and incubated at 37° C., 5% CO2. The vascular channel of the Liver-Chip was maintained with human endothelial media (Emulate, Inc.). Two days after seeding, the Liver-Chips were connected to the Human Emulation System™ (Emulate, Inc.) and both chip channels were perfused at 30 μL/h to provide a continuous supply of fresh medium for the duration of the experiments. At day 5 in culture, the basal medium was modified to DMEM low glucose (1 g/L) supplemented with non-essential amino acids solution (NEAA, 1:200 dilution), glutaMAX (Thermo Fisher) ascorbic acid (Sigma-Aldrich) and penicillin/streptomycin (Sigma-Aldrich). Moreover, ITS+ premix (Corning) was replaced by ITS (GIBCO, 1:500 dilution) in order to achieve a more physiological relevant concentration of insulin, while the FBS supplement was removed. Treatment. […] The Liver-Chip was maintained for 48h in treatment medium and either assayed or allowed to recover for 5 days in basal medium. Optimization of Liver-Chip ECM for BC integrity. We iteratively modified the original ECM coating protocol^74 in order to improve BC formation. Five different combinations of ECM composition and deposition strategy were tested (FIG. 82B), where ECM-A denoted the original protocol. Briefly, for ECM-A, top and bottom channels were coated by incubating with 100 μg/mL rat tail collagen-I (Corning) and 25 μ/mL fibronectin (Gibco) overnight at 37° C. […]

[5] = test system: primary human hepatocytes; conditions: 0.08% and 0.16% pooled vs vehicle
lung cells = experiment: Viability/differentiation biomarker scoring of airway chip culture conditions; assay type: cell-based; conditions: airway S1 chip culture
Excerpt: In one embodiment, the present invention contemplates a method comprising scoring at least one cell biomarker and determining a viable and differentiated cell. For example, specific quantitative scores have been assigned to a set of cell biomarkers for viability and differentiation during chip cell culture maturation includes, but is not limited to, cell death (1), ciliation (2) cell attachment (3) cell movement/shape (4), cell overgrowth (5), cell invasion (6). See, FIG. 14.
As depicted, the score value increases as the viability/differentiation relevance of the cell biomarker decreases. In one embodiment, the cell death biomarker score value increases in proportion to increased cell death. In one embodiment, the ciliation biomarker score value increases in proportion to deceased ciliation. In one embodiment, the cell attachment biomarker score value increases in proportion to decreased cell attachment. In one embodiment, the cell movement/shape biomarker score value increases with decreased cell movement/shape. In one embodiment, the cell overgrowth biomarker score value increases with increased cell overgrowth. […]
Each coating can be seen to result in different score values that are independent of location in the cell culture device (e.g., Zoe). […] It is known that retinoic acid (RA) is readily absorbed by most microchip substrates. […]

human neutrophils = experiment: Neutrophil recruitment/adhesion in HRV infected Airway Chips; assay type: cell-based
Excerpt: In one embodiment, the present invention contemplates a method for reducing neutrophil adhesion using an IL-13 inhibitor. In one embodiment, the IL-13 inhibitor is a CXCR2 antagonist. In one embodiment, the IL-13 inhibitor is MK-7123. In one embodiment, the neutrophil adhesion is reduced by approximately seventy-five (75) percent (%). In one embodiment, the IL-13 recruits neutrophils by approximately two-fold.
This response was accompanied by a reduction in neutrophil velocity. FIG. 95A, 95B. Also observed was a significant twofold increase in neutrophil recruited between HRV infected chips and infected chips in presence of IL-13 (953 vs 1999; p<0.001). FIG. 95A. […] FIG. 95C.

[6] = test system: mucociliary bronchiolar epithelium (hAECs); experiment: Effect of IL-13 on goblet cells and cilia beating frequency in Airway Chip; assay type: cell-based, human; conditions: IL-13 100 ng/mL, 7 days
Experimental: Cilia beating frequency (CBF) was measured by applying Fourier spectral analysis to high-speed video recordings of the ciliated surfaces. Using an inverted phase contrast microscope, the ciliated surfaces were recorded at 190-200 frames per second and at a resolution of 512 by 512 pixels, which corresponded to a field of view of 166 by 166 μm^2 (0.32 μm per pixel). Cilia beating was recorded at multiple randomly chosen fields of view (FOV) for each chip.
A first step of video processing was to identify regions of ciliary beating by computing a normalized standard deviation of an intensity value for each pixel across all frames. […] FIG. 104A-B.
In a further step, areas with ciliary motion were thresholded and the movie field of view was divided into 289 windows (ca. 10×10 μm^2 in size). For each window, a random set comprising 70% of all pixels with detected motion was further analyzed to detect the dominant beat frequency. For each sampled pixel, ciliary beat frequency was determined from a time-dependent fluctuation of pixel brightness reflecting the periodicities of the ciliary movement. A bandwidth filter (e.g., approximately 1 to 30 Hz) was applied to each pixel signal to remove noise. […] Thus, for each FOV, the number of measured CBFs was determined by the number of windows with usable signals (e.g., 289 windows). […]

CCO [ethanol]
steatosis (hepatic lipid accumulation) [1]: steatosis was induced
ROS events per nuclei [2]: dose-dependent increase in ROS events
dilated BC (cholestatic) areas [3]: areas of markedly dilated BCs
glycogen storage in cell lysates ([4]; 0.08% ethanol): trend for increase
albumin release [4]: not affected
cholesterol levels ([4]; human-relevant BACs, effluent and cell lysates): significant increase in cholesterol levels
glucose release ([4]; except toxic concentrations above 0.32%): no changes were detected
downregulated DE genes [5]: 36
upregulated DE genes [5]: 87
differentially expressed (DE) genes ([5]; adj. p<0.05, |log2FC|>1): 123

Bovine Serum Albumin (BSA): membrane coating layer of bovine serum albumin
cell viability and differentiation (scoring / morphological assessment) (lung cells): found to support the most viable and differentiated cells

CC[C@@H](Nc1c(Nc2cccc(C(=O)N(C)C)c2O)c(=O)c1=O)c1ccc(C)o1 [MK-7123, reference compound]
reduction of neutrophil adhesion (human neutrophils; stated as embodiment, MK-7123 10 μM in FIG. 95): ~75%

CCCCCCCC/C=C\CCCCCCCC(=O)O [oleic acid, reference compound]
steatosis (hepatic lipid accumulation) [1]: steatosis was induced

IL-13: Th2 cytokine IL-13
reduction in cilia beating frequency [6]: 14.4%
goblet cells, total area ([6]; 16.5% without IL-13): 50.3%
neutrophil recruited (human neutrophils; HRV infected chips in presence of IL-13, 953 in HRV infected chips alone): 1999
